Patent US12226417B2, “Fatty liver disease treatment using glucocorticoid and mineralocorticoid receptor antagonists” (Corcept Therapeutics, Inc., priority 2014, dated 2025)

Legend:
[1] = biological target: T1, human recombinant GR (Homo sapiens, UniProt P04150); assay: GR protein:protein interaction assay (DiscoveRx, CHO-K1, PGC1α); type: cell-based
T1 construct: β-galactosidase enzyme fragment (complementation partner); host or cells: CHO-K1
T1 sequence (P04150 1-777): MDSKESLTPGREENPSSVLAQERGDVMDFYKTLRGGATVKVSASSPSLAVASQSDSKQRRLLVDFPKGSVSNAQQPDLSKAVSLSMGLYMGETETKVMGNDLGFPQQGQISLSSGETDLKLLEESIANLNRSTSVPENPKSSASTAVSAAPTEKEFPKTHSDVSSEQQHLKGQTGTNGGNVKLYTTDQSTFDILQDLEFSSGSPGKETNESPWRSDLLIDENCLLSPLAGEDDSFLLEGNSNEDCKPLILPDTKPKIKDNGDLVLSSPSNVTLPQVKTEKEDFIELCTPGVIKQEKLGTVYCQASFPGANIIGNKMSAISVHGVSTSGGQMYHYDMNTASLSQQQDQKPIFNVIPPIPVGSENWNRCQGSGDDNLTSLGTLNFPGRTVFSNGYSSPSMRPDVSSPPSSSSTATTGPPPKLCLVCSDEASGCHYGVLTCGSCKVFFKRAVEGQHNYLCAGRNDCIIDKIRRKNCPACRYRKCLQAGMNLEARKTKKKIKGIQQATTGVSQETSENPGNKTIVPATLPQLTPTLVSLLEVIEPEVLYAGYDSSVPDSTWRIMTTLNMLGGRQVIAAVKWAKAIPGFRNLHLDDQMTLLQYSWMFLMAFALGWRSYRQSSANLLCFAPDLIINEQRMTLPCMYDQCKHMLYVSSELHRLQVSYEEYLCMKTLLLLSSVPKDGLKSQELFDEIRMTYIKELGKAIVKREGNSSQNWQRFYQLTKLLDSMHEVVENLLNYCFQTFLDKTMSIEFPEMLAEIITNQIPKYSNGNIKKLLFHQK
Description: (§1) Protein:protein interaction assays were used to determine the ability of test compounds to act as antagonists of the glucocorticoid receptor and/or mineralocorticoid receptor. These assays utilize a commercial assay platform provided by DiscoveRx Corp. (Fremont, CA). DiscoveRx technology is based on β-galactosidase enzyme fragment complementation using a luminogenic substrate. Briefly, Chinese hamster ovary cells (CHO-K1) have been engineered to express either human recombinant GR or MR together with a steroid responsive coactivator protein (SRCP) called PGC1α (peroxisome proliferator activated receptor gamma coactivator lα). The assay measures the net outcome of GR or MR activation, i.e., nuclear translocation from the cytoplasm and interaction of the GR or MR with the coactivator PGC1α in the cell nucleus. The assay can be configured in both agonist and antagonist modes.
(§2) The cells (100 μl) were plated into 96 well plates and placed in a 37° C., 5% CO2 incubator for 24 hours. After removing the cells from the incubator, 5 μl of test compound or vehicle was added to each well, and the plates were incubated for 1 hour at 37° C., 5% CO2. […] The detection reagent was added, 55 μl per well, and the plates were incubated at room temperature in the dark without mixing. The plates were read for luminescence using an EnVision® plate reader (3 hour read).

[2] = biological target: T2, glucocorticoid receptor (GR) (Homo sapiens, UniProt P04150); assay: GR reporter gene assay using SW1353/MMTV-5 cells; type: cell-based
T2 construct: contains endogenous glucocorticoid receptors; endogenous in cells; host or cells: SW1353/MMTV-5 (human chondrosarcoma, stably transfected with pMAMneo-Luc reporter)
T2 sequence (P04150 1-777): T1 sequence (P04150 1-777)
Method: SW1353/MMTV-5 is an adherent human chondrosarcoma cell line that contains endogenous glucocorticoid receptors. It was transfected with a plasmid (pMAMneo-Luc) encoding firefly luciferase located behind a glucocorticoid-responsive element (GRE) derived from a viral promoter (long terminal repeat of mouse mammary tumor virus). A stable cell line SW1353/MMTV-5 was selected with geneticin, which was required to maintain this plasmid.
SW1353/MMTV-5 cells were distributed in 96-well plates and incubated in medium (without geneticin) for 24 hrs.

[3] = tested on: C57B16/J mice given a high fat diet; assay: Determination of liver lipids in mice fed a high fat diet (Oil Red O staining); type: in vivo, mouse; conditions: high fat diet (60% fat) three weeks; for fatty liver compared to the controls: 60 mg/kg/day in the food
Method: C57B16/J mice (n=8 per group) were given a high fat diet (60% fat) for three weeks and then sacrificed. Livers were collected and weighed. Liver slices were prepared and analysed for lipid levels by Oil Red 0 staining (FIGS. 1 and 3). One group of mice received Compound 1 mixed in the food (60 mg/kg/day) whilst another group of mice received vehicle mixed in the food. […] Compound 1 has GR antagonist activity and some MR antagonist activity.

[4] = biological target: T3, human recombinant MR (Homo sapiens, UniProt P08235); assay: MR protein:protein interaction assay (DiscoveRx, CHO-K1, PGC1α); type: cell-based
T3 construct: β-galactosidase enzyme fragment (complementation partner); host or cells: CHO-K1
T3 sequence (P08235 1-984): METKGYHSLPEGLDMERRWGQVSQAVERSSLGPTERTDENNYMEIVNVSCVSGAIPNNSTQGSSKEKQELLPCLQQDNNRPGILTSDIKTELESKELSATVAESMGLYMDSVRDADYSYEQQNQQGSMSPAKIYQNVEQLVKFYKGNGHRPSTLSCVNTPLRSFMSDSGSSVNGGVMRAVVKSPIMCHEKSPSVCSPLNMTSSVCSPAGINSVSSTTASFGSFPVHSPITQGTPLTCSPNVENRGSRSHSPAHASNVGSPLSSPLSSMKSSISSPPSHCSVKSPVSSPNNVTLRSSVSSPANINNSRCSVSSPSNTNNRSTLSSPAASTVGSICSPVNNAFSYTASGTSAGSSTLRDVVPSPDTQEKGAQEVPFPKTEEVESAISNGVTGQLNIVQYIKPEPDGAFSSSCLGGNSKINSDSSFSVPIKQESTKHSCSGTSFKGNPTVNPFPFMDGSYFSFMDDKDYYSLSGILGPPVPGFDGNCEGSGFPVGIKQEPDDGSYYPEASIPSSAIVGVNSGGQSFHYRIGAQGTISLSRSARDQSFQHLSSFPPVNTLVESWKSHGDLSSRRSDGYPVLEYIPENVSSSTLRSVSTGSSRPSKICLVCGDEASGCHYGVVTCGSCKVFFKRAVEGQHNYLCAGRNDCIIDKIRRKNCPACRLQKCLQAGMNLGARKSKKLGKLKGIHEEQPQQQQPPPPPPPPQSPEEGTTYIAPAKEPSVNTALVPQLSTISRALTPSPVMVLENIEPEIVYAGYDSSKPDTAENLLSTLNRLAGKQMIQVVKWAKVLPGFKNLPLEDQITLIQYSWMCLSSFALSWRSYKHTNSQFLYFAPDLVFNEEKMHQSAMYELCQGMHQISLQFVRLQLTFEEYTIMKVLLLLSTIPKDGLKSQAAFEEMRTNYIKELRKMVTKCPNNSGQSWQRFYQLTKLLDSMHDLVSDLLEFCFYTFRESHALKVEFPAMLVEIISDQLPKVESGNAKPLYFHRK
Description: as §1
as §2, with “EnVision® (Perkin Elmer, Walthan, MA)” for “EnVision®”

[5] = biological target: T4, mineralocorticoid receptor (MR) (Homo sapiens, UniProt P08235); assay: MR reporter gene assay using T47D/MMTV-5 cells; type: cell-based
T4 construct: containing endogenous mineralocorticoid and progesterone receptors (PR); endogenous in cells; host or cells: T47D/MMTV-5 (human breast carcinoma, stably transfected with pMAMneo-Luc reporter)
T4 sequence (P08235 1-984): T3 sequence (P08235 1-984)
Method: (§3) As described for the SW1353 cell line above, T47D cells were transfected with the same pMAMneo-Luc plasmid, and stable lines were selected with geneticin.
(§4) T47D/MMTV-5 calls were distributed in 96-well plates (100 μl) in RPMI640 medium+10% charcoal stripped FCS. The cells were incubated for 24 hours in a CO2 oven.

[6] = biological target: T5, progesterone receptor (PR) (Homo sapiens, UniProt P06401); assay: PR reporter gene assay using T47D/MMTV-5 cells; type: cell-based; conditions: antagonist mode, 50 nM progesterone
T5 construct: containing endogenous mineralocorticoid and progesterone receptors (PR); endogenous in cells; host or cells: T47D/MMTV-5 (human breast carcinoma, stably transfected with pMAMneo-Luc reporter)
T5 sequence (P06401 1-933): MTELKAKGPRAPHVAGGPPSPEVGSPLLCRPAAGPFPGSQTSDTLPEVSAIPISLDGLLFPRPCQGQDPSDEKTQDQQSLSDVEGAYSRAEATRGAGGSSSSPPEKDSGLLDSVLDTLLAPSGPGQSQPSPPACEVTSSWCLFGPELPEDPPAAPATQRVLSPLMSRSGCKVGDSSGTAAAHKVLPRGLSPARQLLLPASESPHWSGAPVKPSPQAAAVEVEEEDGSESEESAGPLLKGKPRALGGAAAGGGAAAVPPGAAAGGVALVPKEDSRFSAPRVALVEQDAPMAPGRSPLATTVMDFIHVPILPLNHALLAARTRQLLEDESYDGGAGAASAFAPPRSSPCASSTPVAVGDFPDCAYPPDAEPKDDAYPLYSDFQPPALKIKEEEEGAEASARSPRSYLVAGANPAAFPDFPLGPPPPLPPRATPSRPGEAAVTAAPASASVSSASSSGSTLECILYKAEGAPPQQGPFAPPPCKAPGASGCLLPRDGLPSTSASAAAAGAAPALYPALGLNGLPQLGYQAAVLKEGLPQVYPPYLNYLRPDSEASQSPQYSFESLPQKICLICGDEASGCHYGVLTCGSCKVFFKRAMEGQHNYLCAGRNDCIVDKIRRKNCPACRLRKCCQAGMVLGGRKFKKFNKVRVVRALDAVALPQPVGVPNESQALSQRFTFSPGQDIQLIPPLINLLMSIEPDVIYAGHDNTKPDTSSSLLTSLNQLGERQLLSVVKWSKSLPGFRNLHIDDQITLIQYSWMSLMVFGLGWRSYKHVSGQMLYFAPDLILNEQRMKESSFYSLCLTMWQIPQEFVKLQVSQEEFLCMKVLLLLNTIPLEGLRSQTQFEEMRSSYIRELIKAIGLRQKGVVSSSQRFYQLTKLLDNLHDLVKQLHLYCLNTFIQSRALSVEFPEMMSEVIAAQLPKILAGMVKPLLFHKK
Method: as §3, §4

Ki [1] [nM] | Ki [2] [nM] | Ki [4] [nM] | Ki [5] [nM] | activity in progesterone receptor reporter gene assay [6] | SMILES | fatty liver compared to the controls [3] | lipid droplets in livers (Oil Red O staining) ([3]; 60 mg/kg/day mixed in the food, versus vehicle control)
118 | 24 | 125 | 148 | inactive | O=c1[nH]c(=O)c(Cc2cccc(C(F)(F)F)c2)c([C@H]2CC[C@H](c3ccccc3)CC2)[nH]1 [Compound 1, (E)-6-(4-phenylcyclohexyl)-5-(3-trifluoromethylbenzyl)-1H-pyrimidine-2,4-dione] | did not induce fatty liver | no or low level of lipid droplets
 |  |  |  |  | CC#C[C@]1(O)CC[C@H]2[C@@H]3CCC4=CC(=O)CCC4=C3[C@@H](c3ccc(N(C)C)cc3)C[C@@]21C [mifepristone, reference compound] | increased fatty liver compared to the controls | 
